Source: patent US4435574A, “2,6-Dimethyl-3,5-dicarbomethoxy-4-(ortho -di-fluoromethylthiophenyl)-1,4-dihydropyridine” (priority 1981, dated 1984)
“And” between values parts separate entries of the source, which are not always exact repeats. Identical values can stand only once. “Also recorded” adds a separate entry of the source. Like-named read-outs stand apart in the source and are kept apart here.

Experiments:
coronary blood flow [1] = experiment: Volume rate of the coronary blood flow in anesthetized cats, intravenous; type: in vivo; settings: for Effective period / Increase in coronary blood flow: intravenous
coronary blood flow [2] = settings: prior-art compound, in words; cited from earlier work
[3] = prior-art compound, in words; cited from earlier work
[4] = tested on: arterial blood pressure of anesthetized cats; experiment: Reduction of arterial blood pressure by 30 percent (ED30) in anesthetized cats; type: in vivo; settings: for ED30: Felis catus, read-out: ED30 (effective dose that reduces arterial blood pressure by 30 percent)
[5] = tested on: spontaneously hypertensive rats; experiment: Systolic arterial pressure in awake spontaneously hypertensive female rats of the Okamoto-Aoki line, intragastric; type: in vivo; settings: for Hypotensive effect, %, upon administration to spontaneously hypertensive rats: into the stomach
Protocol: Investigation of the pharmacological action of 2,6-dimethyl-3,5-dicarbomethoxy-4-(o-difluoromethylthiophenyl)-1,4-dihydropyridine upon parameters characterizing the performance of the cardiovascular system has been carried out in anesthetized cats, as well as in rats.
In the conditions as stated above, the proposed compound exceeded the SKF-24260 compound approximately 3 times with respect to both hypotensive activity and active period (see Table 1).
24 hours after administration of the proposed compound in a dose of 10 mg/kg, the systolic arterial pressure was down by a further 21.4±2.7%.

[6] = Acute toxicity in breedless white mice, intraperitoneal; type: in vivo; settings: mouse, in vivo, ip; intraperitoneal administration to white mice
From the text: (§1) In experiments carried out in breedless white mice, the proposed compound, administered intraperitoneally, has been investigated for acute toxicity.

white mice [7] = experiment: as above; type: in vivo; settings: in words
From the text: as §1

Light stability = type: physicochemical; settings: in words
Solubility = type: physicochemical
[8] = tested on: arterial blood pressure of anesthetized cats; settings: prior-art compound, in words; cited from earlier work
white mice [9] = settings: prior-art compound, in words; cited from earlier work

For `COC(=O)C1=C(C)NC(C)=C(C(=O)OC)C1c1ccccc1[N+](=O)[O-]` [Adalate, 2,6-dimethyl-3,5-dicarbomethoxy-4-(o-nitrophenyl)-1,4-dihydropyridine, reference compound], which Effective period (coronary blood flow [1]; 0.05 mg/kg) is on record?
The Effective period was 35 min.

And the “Increase in coronary blood flow” value (coronary blood flow [1]; 0.05 mg/kg)?
Its value is 90%.

And the Coronarodilating activity (coronary blood flow [2])?
The Coronarodilating activity was “high coronarodilating activity”.

And the Sensitivity to light [3]?
Its Sensitivity to light is “highly sensitive to light, decomposing rapidly in the presence of light”.

With `COC(=O)C1=C(C)NC(C)=C(C(=O)OC)C1c1ccccc1SC(F)F` [Proposed compound, 2,6-dimethyl-3,5-dicarbomethoxy-4-(o-difluoromethylthiophenyl)-1,4-dihydropyridine] as the compound, how does the ED30 [4] read?
The ED30 was 0.019 mg/kg.

And the “Hypotensive effect compared with SKF-24260” value ([4]; acute experiments, 50% aqueous dimethylacetamide, in words)?
The value was “same hypotensive effect”.

And the Systolic arterial pressure ([5]; 1 mg/kg and 10 mg/kg into the stomach, in words)?
The Systolic arterial pressure was “dropped considerably”.

And the “Hypotensive effect, %, upon administration to spontaneously hypertensive rats” value (from here on “Hypotensive effect, %”) ([5]; after 6 hours, 1 mg/kg)?
Its value is 19.5%.

What about the “Hypotensive effect, %” value ([5]; after 6 hours, 10 mg/kg) of the same compound?
The value was 54.8%.

What about the “Hypotensive effect, %” value ([5]; after 24 hours, 10 mg/kg, 10 mg/kg) of the same compound?
The value was 21.4±2.7% and 21.4%.

And the “Duration of hypotensive activity” value ([5]; in words)?
Its value is “prolonged duration; also recorded: highly prolonged hypotensive activity”.

And the “Duration of hypotensive action (active period) relative to SKF-24260” value ([5]; spontaneously hypertensive rats)?
Its value is “approximately 3 times”.

What about the LD50 [6] of the same compound?
Its LD50 is 93 mg/kg.

What about the Toxicity (white mice [7]) of the same compound?
Its Toxicity is “low toxicity”.

And the “Toxicity compared with SKF-24260” value (white mice [7]; intraperitoneal, mice)?
Its value is “considerably lower; also recorded: considerably less toxic”.

What about the Effective period (coronary blood flow [1]; 0.05 mg/kg) of the same compound?
Its Effective period is 30 min.

And the “Increase in coronary blood flow” value (coronary blood flow [1]; 0.05 mg/kg)?
The value was 103%.

What about the Effective period (coronary blood flow [1]; 0.1 mg/kg) of the same compound?
The Effective period was 65 min.

What about the “Increase in coronary blood flow” value (coronary blood flow [1]; 0.1 mg/kg) of the same compound?
Its value is 150%.

What about the Coronarodilating effect (coronary blood flow [1]; in words) of the same compound?
Its Coronarodilating effect is “pronounced coronarodilatory action; also recorded: capable of producing a coronarodilating effect”.

And the “Coronarodilating effect compared with Adalate” value (coronary blood flow [1]; in words)?
The value was “comparable with that of Adalate; also recorded: comparable with the coronarodilatory action of Adalate”.

What about the Sensitivity to light (Light stability) of the same compound?
Its Sensitivity to light is “light-resistant”.

What about the “Solubility in organic solvents” value (Solubility; organic solvents) of the same compound?
Its value is “soluble in organic solvents”.

What about the Solubility in water (Solubility; water) of the same compound?
The Solubility in water was “insoluble in water”.

For `CCOC(=O)C1=C(C)NC(C)=C(C(=O)OCC)C1c1ccccc1C(F)(F)F` [SKF-24260, 2,6-dimethyl-3,5-dicarbothoxy-4-(o-trifluoromethylphenyl)-1,4-dihydropyridine, reference compound], which ED30 [4] is on record?
Its ED30 is 0.022 mg/kg.

What about the “Systolic arterial pressure after 24 hours” value ([5]; 10 mg/kg, 24 hours, result in words) of the same compound?
The value was “return to the initial value or increase above the initial level; also recorded: Initial”.

And the “Hypotensive effect, %” value ([5]; after 6 hours, 1 mg/kg)?
Its value is 6.0%.

And the “Hypotensive effect, %” value ([5]; after 6 hours, 10 mg/kg)?
Its value is 15.8%.

And the LD50 [6]?
The LD50 was 38.5 mg/kg.

And the “Duration of hypotensive effect” value [8]?
The value was “short duration”.

What about the Hypotensive activity [8] of the same compound?
The Hypotensive activity was “appreciable hypotensive activity”.

And the Toxicity (white mice [9])?
Its Toxicity is “high toxicity”.
